The values that follow come from PubChem BioAssay AID190 (DTP/NCI, 2004).

Several values for one entry are separate records, joined by “and”; a condition that tells them apart may be missing. Equal entries are not always repeated. Inconclusive results and toxic doses are left out.

The test system of this assay is AKR/Lw mice, AKR lymphoma ip, median survival T/C. Put plainly: NCI In Vivo Anticancer Drug Screen. Data for tumor model Lymphoma AKR (Transplanted) (intraperitoneal) in AKR/Lw mice. The note with it: endpoint: median survival time, higher = longer survival. Here is the method: The antitumor activity of compounds was measured in mice bearing transplantable tumors. Survival or tumor size were measured and the results are expressed as the measurement made in the treated group (T) divided by the measurement made in the vehicle treated control group (C). The tumor model used in this assay is Lymphoma AKR (Transplanted) (intraperitoneal) in AKR/Lw mice

As to `CC1CCC(NC(=O)N(CCCl)N=O)CC1` (configuration not stated), the T/C was 112 % of control (dose: 1.25 mg/kg/injection, schedule: Q14DX003 (ip), vehicle: saline with Tween-80); 106 % of control (dose: 2.0 mg/kg/injection, schedule: Q04DX003 (ip), vehicle: saline with Tween-80); 113 % of control (dose: 2.0 mg/kg/injection, schedule: Q07DX004 (ip), vehicle: saline with Tween-80); 93 % of control (dose: 2.5 mg/kg/injection, schedule: Q01DX006 (ip), vehicle: saline with Tween-80); 102 % of control (dose: 2.5 mg/kg/injection, schedule: Q09DX002 (ip), vehicle: saline with Tween-80); 108 % of control (dose: 2.5 mg/kg/injection, schedule: Q10DX002 (ip), vehicle: saline with Tween-80). Moreover, the T/C runs as follows: (dose: 2.5 mg/kg/injection, schedule: Q14DX003 (ip), vehicle: saline with Tween-80) 108 % of control and 112 % of control (2×); (dose: 3.0 mg/kg/injection, schedule: Q01DX001 (ip), vehicle: saline with Tween-80) 111 % of control; (dose: 4.4 mg/kg/injection, schedule: Q04DX003 (ip), vehicle: saline with Tween-80) 92 % of control; (dose: 4.4 mg/kg/injection, schedule: Q07DX004 (ip), vehicle: saline with Tween-80) 124 % of control; (dose: 4.8 mg/kg/injection, schedule: Q01DX001 (ip), vehicle: saline with Tween-80) 116 % of control; (dose: 5.0 mg/kg/injection, schedule: Q01DX006 (ip), vehicle: saline with Tween-80) 90 % of control. The T/C is 101 % of control (dose: 5.0 mg/kg/injection, schedule: Q09DX002 (ip), vehicle: saline with Tween-80); 94 % of control (dose: 5.0 mg/kg/injection, schedule: Q10DX002 (ip), vehicle: saline with Tween-80); 106 % of control and 118 % of control (dose: 6.25 mg/kg/injection, schedule: Q07DX003 (ip), vehicle: saline); 118 % of control (dose: 6.7 mg/kg/injection, schedule: Q07DX004 (ip), vehicle: saline with Tween-80); 120 % of control (dose: 7.5 mg/kg/injection, schedule: Q01DX006 (ip), vehicle: saline with Tween-80); 101 % of control (dose: 7.5 mg/kg/injection, schedule: Q09DX002 (ip), vehicle: saline with Tween-80). Further, the T/C (dose: 8.0 mg/kg/injection, schedule: Q09DX002 (ip), vehicle: saline with Tween-80) is 86 % of control; the T/C (dose: 10.0 mg/kg/injection, schedule: Q01DX006 (ip), vehicle: saline with Tween-80) is 112 % of control; the T/C (dose: 10.0 mg/kg/injection, schedule: Q04DX003 (ip), vehicle: saline with Tween-80) was 66 % of control; the T/C (dose: 10.0 mg/kg/injection, schedule: Q04DX004 (ip), vehicle: Klucel (hydroxypropylcellulose) (HPC)) was 86 % of control; the T/C (dose: 10.0 mg/kg/injection, schedule: Q07DX004 (ip), vehicle: saline with Tween-80) is 107 % of control; the T/C (dose: 10.0 mg/kg/injection, schedule: Q09DX002 (ip), vehicle: saline with Tween-80) is 107 % of control (2×) and 117 % of control. For the same compound, the T/C (dose: 10.0 mg/kg/injection, schedule: Q10DX002 (ip), vehicle: saline with Tween-80) is 116 % of control; the T/C (dose: 11.0 mg/kg/injection, schedule: Q01DX001 (ip), vehicle: saline with Tween-80) is 106 % of control; the T/C (dose: 12.0 mg/kg/injection, schedule: Q01DX001 (ip), vehicle: saline) is 103 % of control; the T/C (dose: 13.5 mg/kg/injection, schedule: Q10DX002 (ip), vehicle: saline with Tween-80) is 104 % of control; the T/C (dose: 15.0 mg/kg/injection, schedule: Q04DX004 (ip), vehicle: Klucel (hydroxypropylcellulose) (HPC)) is 94 % of control; the T/C (dose: 15.0 mg/kg/injection, schedule: Q14DX003 (ip), vehicle: saline with Tween-80) is 109 % of control. Besides, the T/C is, setting by setting: (dose: 16.0 mg/kg/injection, schedule: Q01DX001 (ip), vehicle: saline with Tween-80) 111 % of control; (dose: 16.0 mg/kg/injection, schedule: Q09DX002 (ip), vehicle: saline with Tween-80) 86 % of control; (dose: 20.0 mg/kg/injection, schedule: Q04DX004 (ip), vehicle: Klucel (hydroxypropylcellulose) (HPC)) 86 % of control; (dose: 25.0 mg/kg/injection, schedule: Q07DX003 (ip), vehicle: saline) 118 % of control and 121 % of control; (dose: 27.0 mg/kg/injection, schedule: Q10DX002 (ip), vehicle: saline with Tween-80) 116 % of control; (dose: 32.0 mg/kg/injection, schedule: Q09DX002 (ip), vehicle: saline with Tween-80) 80 % of control. Also, the T/C runs as follows: (dose: 36.0 mg/kg/injection, schedule: Q01DX001 (ip), vehicle: saline with Tween-80) 116 % of control; (dose: 36.0 mg/kg/injection, schedule: Q01DX001 (ip), vehicle: saline) 262 % of control; (dose: 45.0 mg/kg/injection, schedule: Q10DX002 (ip), vehicle: saline with Tween-80) 103 % of control; (dose: 48.0 mg/kg/injection, schedule: Q01DX001 (ip), vehicle: saline) 100 % of control and 117 % of control; (dose: 54.0 mg/kg/injection, schedule: Q10DX002 (ip), vehicle: saline with Tween-80) 55 % of control.

In the case of `c1ccc2c(c1)CNCc1ccccc1-2`, the T/C (dose: 100.0 mg/kg/injection, schedule: Q01DX001 (ip), vehicle: saline) is 97 % of control.

With `COc1cc([C@@H]2c3cc4c(cc3[C@H](O)[C@H]3COC(=O)[C@@H]23)OCO4)cc(OC)c1OC`, the T/C (dose: 6.0 mg/kg/injection, schedule: Q01DX009 (ip), vehicle: Klucel (hydroxypropylcellulose) (HPC)) is 110 % of control and the T/C (dose: 12.0 mg/kg/injection, schedule: Q01DX009 (ip), vehicle: Klucel (hydroxypropylcellulose) (HPC)) is 120 % of control.

With `CCCn1c(=S)[nH]c2ccccc2c1=O`, the T/C (dose: 100.0 mg/kg/injection, schedule: Q01DX001 (ip), vehicle: Klucel (hydroxypropylcellulose) (HPC)) is 103 % of control; the T/C (dose: 200.0 mg/kg/injection, schedule: Q01DX001 (ip), vehicle: Klucel (hydroxypropylcellulose) (HPC)) is 94 % of control; the T/C (dose: 400.0 mg/kg/injection, schedule: Q01DX001 (ip), vehicle: Klucel (hydroxypropylcellulose) (HPC)) is 100 % of control.
